The results in this text go back to patent US5260280A (priority 1989, dated 1993).

Several values for one entry are separate records, joined by “and”; a condition that tells them apart may be missing. Equal entries are not always repeated. Where two headings read alike, the source gives them in different places.

Assay [1] relates to CHO-Kl cells. The assay is classed as cell-based, Chinese hamster.
For assay [2], the system named is enterotoxin LT-II. More on the design: species or system E. coli. As to conditions: in vivo, po.
In assay [3] the target is enterotoxin CFA/II(LT-II) (Escherichia coli, UniProt P0CK94). The assay is classed as cell-based, E. coli.
The target in assay [4] is cholera toxin CT (Vibrio cholerae, UniProt P01556). The assay is classed as cell-based.
The target in assay [5] is cholera toxin B-subunits (Vibrio cholerae, UniProt P01556). The assay is classed as binding.
Assay [6] concerns the target enterotoxin CFA/I(LT-1) (Escherichia coli, UniProt D0Z6T1). The assay is classed as cell-based, E. coli.
Assay [7] relates to cholera toxin. Format: in vivo, Vibrio cholerae. As to conditions: Balb/c mice, CT 0.25 mg oral on day 8.
The test system of assay [8] is enterotoxin LT-I. Also on record: species or system E. coli. As to conditions: in vivo, po.

Sequence of enterotoxin CFA/II(LT-II) (P0CK94 whole entry, looked up): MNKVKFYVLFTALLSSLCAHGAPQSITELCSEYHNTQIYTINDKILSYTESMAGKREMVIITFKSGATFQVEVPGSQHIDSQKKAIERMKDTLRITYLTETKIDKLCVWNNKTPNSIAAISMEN
Sequence of enterotoxin CFA/I(LT-1) (D0Z6T1 whole entry, looked up): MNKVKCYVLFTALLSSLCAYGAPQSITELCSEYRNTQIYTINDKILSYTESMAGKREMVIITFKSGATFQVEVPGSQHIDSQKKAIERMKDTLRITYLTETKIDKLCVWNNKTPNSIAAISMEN
Sequence of cholera toxin CT (P01556 whole entry, looked up): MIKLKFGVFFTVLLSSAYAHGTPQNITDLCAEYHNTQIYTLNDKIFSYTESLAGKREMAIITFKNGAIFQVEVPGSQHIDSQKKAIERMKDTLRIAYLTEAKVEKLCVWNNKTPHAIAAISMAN

On to cholera toxin [CT], for which the “CHO-Kl cells morphologically altered” value in assay [1] was “at least 70%”.
Regarding ganglioside GD3, the Rate of diarrhea in assay [2] is 40% and 20%.
On to kappa-casein, for which, in assay [3], the “neutralization of the toxicity of LT-II against CHO-Kl cells (morphological alteration)” value is listed as “neutralized the toxicity”. Besides, the “neutralization of the toxicity of CT against CHO-Kl cells (morphological alteration)” value in assay [4] is “neutralized the toxicity”. Further, the “interference with the binding of the cholera toxin B-subunits to GM1” value (“interference with the binding” for short) in assay [5] was “interfered with the binding”. Further, in assay [6], the “neutralization of the toxicity of LT-I against CHO-Kl cells (morphological alteration)” value was “neutralized the toxicity”.
Consider kappa-casein glycomacropeptides [GMP], for which the “neutralization of the toxicity of LT-II against CHO-Kl cells (morphological alteration)” value in assay [3] was “neutralized the toxicity”. Also, the “neutralization of the toxicity of CT against CHO-Kl cells (morphological alteration)” value in assay [4] is given as “neutralized the toxicity”. For the same substance, the “interference with the binding” value in assay [5] was “interfered with the binding”. Moreover, the “neutralization of the toxicity of LT-I against CHO-Kl cells (morphological alteration)” value in assay [6] was “neutralized the toxicity”.
In the case of sialyllactose [SL], the “neutralization of the toxicity of LT-II against CHO-Kl cells (morphological alteration)” value in assay [3] (samples 1 or 5 micrograms/chamber, LT-II culture supernatant) is listed as “neutralized the toxicity”. The Rate of diarrhea in assay [7] (oral 0.2 mg/day for 7 days) is 20%; in assay [7] (oral 0.5 mg/day for 7 days) it was 20%; in assay [7] (oral 1.0 mg/day for 7 days), 0%; in assay [8], 40% and 20%. In addition, the “neutralization of the toxicity of CT against CHO-Kl cells (morphological alteration)” value in assay [4] (samples 1 or 5 micrograms/chamber, CT 10 micrograms/ml) is listed as “neutralized the toxicity”. Further, in assay [5] (GM1-adsorbed plate, peroxidase-labeled CT-B, absorbance at 405 nm), the “interference with the binding” value is “interfered with the binding”. The “neutralization of the toxicity of LT-I against CHO-Kl cells (morphological alteration)” value in assay [6] (samples 1 or 5 micrograms/chamber, LT-I culture supernatant) was “neutralized the toxicity”.
